The source of these data is ChEMBL document CHEMBL4118210, “Synthesis of novel hetero ring fused pyridine derivatives; Their anticancer activity, CoMFA and CoMSIA studies” (Bioorg Med Chem Lett, 2018).

One experiment has as its system COLO 205. In words: Antiproliferative activity against human COLO205 cells by MTT assay. Type of experiment: functional, cell-based. On the technique in general: Tetrazolium assays rely on reduction of a dye to a coloured formazan, in cell work by metabolically active cells.
The subject of the next experiment is HEK293. The experiment can be described thus: Antiproliferative activity against human HEK293 cells by MTT assay. Type of experiment: cell-based.
In the next experiment the test system is MCF7. In words: Antiproliferative activity against human MCF7 cells by MTT assay. Type of experiment: functional, cell-based.
The next experiment relates to HepG2. In words: Antiproliferative activity against human HepG2 cells by MTT assay. Type of experiment: functional, cell-based.
The subject of a further experiment is HeLa. In words: Antiproliferative activity against human HeLa cells by MTT assay. The class given is functional, cell-based.

Consider `CCn1cnc2c(oc3nc(-c4cccs4)cc(C(F)(F)F)c32)c1=O`, for which the IC50 in the experiment with COLO 205 (read-out: IC50), with HEK293, in the experiment with MCF7 (read-out: IC50), in the experiment with HepG2 and in the experiment on HeLa (read-out: IC50) was > 220 µg/mL in each case.

As to `Nc1c(C(=O)NC2CCCC2)oc2nc(-c3ccccc3)cc(C(F)(F)F)c12`, the IC50 in the experiment on COLO 205 (read-out: IC50) was 51.1 µM; with COLO 205 (read-out: pIC50 (converted)) it was 51.3 µM; with HEK293 it was 85 µM; in the experiment on MCF7 (read-out: IC50), 59.8 µM; with MCF7 (read-out: pIC50 (converted)), 60.3 µM; with HepG2, 32.4 µM. For the same compound, the IC50 in the experiment on HeLa (read-out: IC50) was 25.8 µM; in the experiment with HeLa (read-out: pIC50 (converted)) it was 25.7 µM.

With `Cc1nc2c(oc3nc(-c4ccccc4)cc(C(F)(F)F)c32)c(=O)n1C`, the IC50 with COLO 205 (read-out: IC50), in the experiment with HEK293, in the experiment with MCF7 (read-out: IC50), in the experiment on HepG2 and in the experiment on HeLa (read-out: IC50) was > 220 µg/mL in each case.

For `Nc1c(C(=O)NC2CCCC2)oc2nc(-c3cccs3)cc(C(F)(F)F)c12`, the IC50 in the experiment on COLO 205 (read-out: IC50) is 18.4 µM; in the experiment with COLO 205 (read-out: pIC50 (converted)), 18.6 µM; in the experiment with HEK293, 51 µM; in the experiment with MCF7 (read-out: IC50), 22.9 µM; in the experiment on MCF7 (read-out: pIC50 (converted)), 22.9 µM; in the experiment on HepG2, 20.8 µM. The IC50 in the experiment with HeLa (read-out: IC50) was 21.8 µM; in the experiment on HeLa (read-out: pIC50 (converted)), 21.9 µM.

With `Cc1nc2c(oc3nc(-c4cccs4)cc(C(F)(F)F)c32)c(=O)n1C`, the IC50 with COLO 205 (read-out: IC50), with HEK293, in the experiment on MCF7 (read-out: IC50), in the experiment on HepG2 and in the experiment with HeLa (read-out: IC50) was > 220 µg/mL throughout.

For `Cc1nc2c(oc3nc(-c4cccs4)cc(C(F)(F)F)c32)c(=O)n1C1CCCC1`, the IC50 was > 220 µg/mL in the experiment on COLO 205 (read-out: IC50); 124 µM in the experiment on HEK293; > 220 µg/mL in the experiment on MCF7 (read-out: IC50); 11.7 µM with MCF7 (read-out: pIC50 (converted)); > 220 µg/mL in the experiment on HepG2; > 220 µg/mL in the experiment with HeLa (read-out: IC50).

Consider `CCn1cnc2c(oc3nc(-c4ccccc4)cc(C(F)(F)F)c32)c1=O`, for which the IC50 was > 220 µg/mL in the experiment on COLO 205 (read-out: IC50); 121 µM with HEK293; 82.4 µM in the experiment on MCF7 (read-out: IC50); 83.2 µM in the experiment on MCF7 (read-out: pIC50 (converted)); > 220 µg/mL in the experiment on HepG2; > 220 µg/mL in the experiment with HeLa (read-out: IC50).

Regarding `CNC(=O)c1oc2nc(-c3ccccc3)cc(C(F)(F)F)c2c1N`, the IC50 in the experiment on COLO 205 (read-out: IC50) was 36.8 µM; in the experiment with COLO 205 (read-out: pIC50 (converted)) it was 37.2 µM; with HEK293, 62 µM; in the experiment on MCF7 (read-out: IC50), 37.4 µM; in the experiment with MCF7 (read-out: pIC50 (converted)), 37.2 µM; in the experiment on HepG2 it was 41.2 µM. In addition, the IC50 in the experiment on HeLa (read-out: IC50) is 40.2 µM; with HeLa (read-out: pIC50 (converted)), 45.7 µM.

Take `O=c1c2oc3nc(-c4cccs4)cc(C(F)(F)F)c3c2ncn1/N=C/c1ccc(Cl)cc1`: the IC50 in the experiment on COLO 205 (read-out: IC50) is 51.2 µM; in the experiment on COLO 205 (read-out: pIC50 (converted)), 51.3 µM; in the experiment on HEK293, 102 µM; with MCF7 (read-out: IC50), 42.1 µM; in the experiment with MCF7 (read-out: pIC50 (converted)) it was 42.7 µM; in the experiment on HepG2 it was > 220 µg/mL. For the same compound, in the experiment on HeLa (read-out: IC50), the IC50 was > 220 µg/mL.

For `Cc1ccc(/C=N/n2cnc3c(oc4nc(-c5ccccc5)cc(C(F)(F)F)c43)c2=O)cc1`, the IC50 in the experiment on COLO 205 (read-out: IC50), in the experiment with HEK293, in the experiment on MCF7 (read-out: IC50), with HepG2 and with HeLa (read-out: IC50) was > 220 µg/mL throughout.

On to `O=c1c2oc3nc(-c4cccs4)cc(C(F)(F)F)c3c2ncn1/N=C/c1ccc(Br)cc1`, for which the IC50 in the experiment with COLO 205 (read-out: IC50), in the experiment with HEK293, with MCF7 (read-out: IC50), in the experiment on HepG2 and in the experiment on HeLa (read-out: IC50) was > 220 µg/mL throughout.
